This is an account of results in patent publication EP4696688A1, “BENZO-FUSED RING COMPOUND INHIBITOR, AND PREPARATION METHOD THEREFOR AND USE THEREOF” (Shanghai Hansoh Biomedical Co., Ltd., priority 2023, dated 2024).

Read-outs that look alike come from different tables or passages of the source.

For data set [1], the target named is T1, human CYP11B1 (Homo sapiens, UniProt P15538).
T1 construct: The main elements of an expression plasmid include ORF of human CYP11B1 or human CYP11B2; expressed in transfected cells
T1 sequence (P15538 25-503): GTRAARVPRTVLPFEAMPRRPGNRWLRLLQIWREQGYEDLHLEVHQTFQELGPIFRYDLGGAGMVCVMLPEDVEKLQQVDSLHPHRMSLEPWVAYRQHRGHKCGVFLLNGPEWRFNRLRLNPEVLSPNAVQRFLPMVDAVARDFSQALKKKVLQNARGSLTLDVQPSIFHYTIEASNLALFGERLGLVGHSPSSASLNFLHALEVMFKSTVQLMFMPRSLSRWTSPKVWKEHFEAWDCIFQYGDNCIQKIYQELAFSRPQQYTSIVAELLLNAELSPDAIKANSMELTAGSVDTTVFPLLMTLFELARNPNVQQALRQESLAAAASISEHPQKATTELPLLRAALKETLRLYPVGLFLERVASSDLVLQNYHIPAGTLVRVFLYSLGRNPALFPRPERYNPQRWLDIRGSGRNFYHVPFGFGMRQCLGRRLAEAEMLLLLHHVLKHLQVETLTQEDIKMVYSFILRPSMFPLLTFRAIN
The experiment in a line: G-402 cell enzyme experiment, CYP11B1 (cortisol product, HTRF), selectivity versus CYP11B2. The data set is classed as cell-based. Particulars: human selective factor: ratio of CYP11B1 EC50 to CYP11B2 EC50; G-402 cells. From the text: (§1) G-402 cell line was used as host cells to express (by transient or stable transfection) an enzyme of the human CYP11 family. Specifically, G-402 cell lines stably expressing human CYP11B1 and human CYP11B2 were established respectively. […] Therefore, the G-402 cell line is very suitable as a host cell for the ectopic expression of an enzyme of the CYP11 family.
(§2) The G-402 cell line, originally derived from renal myoblastoma, can be obtained from ATCC (CRL-1440). The main elements of an expression plasmid include ORF of human CYP11B1 or human CYP11B2, a suitable promoter (CMV promoter), and a suitable resistance marker (neomycin). The expression plasmid was transfected into G-402 cells by standard technology, and a specific antibiotic was then given for screening. The activity of the enzyme expressed by the screened monoclonal cells was assessed by 11-deoxycorticosterone (substrate of CYP11B2) and 11-deoxycortisol (substrate of CYP11B1).
(§3) The G-402 cells expressing CYP11 plasmid, as established in the above solution, were cultured in McCoy's 5a Modified Medium (ATCC Catalog No. 30-2007) containing 10% FCS and 400 µg/ml G418 in an incubator at 37°C and 5% CO2. A cell enzyme experiment was carried out using DMEM/F12 medium containing 2.5% charcoal-treated FBS and an appropriate concentration of a substrate (1 µM 11-deoxycorticosterone or 1 µM 11-deoxycortisol). In order to detect the activity of the enzyme in the cells, the cells were plated in a 96-well plate and incubated for 16 h. The supernatant was then transferred and analyzed for the concentration of the expected product (the product of CYP11B2: aldosterone; the product of CYP11B1: cortisol). The concentrations of these products were determined by an HTRF experiment of CisBio.
(§4) In the cell enzyme experiment, the inhibitory effect of the test compound on the generated product can reflect the inhibitory effect thereof on the enzyme. The dose-dependent inhibition of the enzyme activity by the compound was calculated by plotting the concentration of the test compound (x axis) versus the measured product level (y axis). Then, the original data was fitted to a 4-parameter sigmoidal function (Morgan-Mercer-Flodin, MMF model) by least square method: y = (AB + Cx^D) / (B + x^D) in which A is the maximum y value, B is the EC50 determined by XLFit, C is the minimum y value, and D is the slope value. The maximum value A corresponds to the amount of the product detected without an inhibitor, and C corresponds to the amount of the product detected in the G402 cells expressing an empty plasmid.
(§5) The EC50 value of the compound of the present invention was determined by the above G-402 experiment system. The activity of the CYP11B2 enzyme was determined under the conditions of 1 µM 11-deoxycorticosterone and a variable amount of the inhibitor, and the activity of the CYP11B1 enzyme was determined under the conditions of 1 µM 11-deoxycortisol and a variable amount of the inhibitor.

The nature of data set [2]: Pharmacokinetic determination in rats. The format is in vivo. Particulars: rat, male SD rats, plasma, oral administration (PO) 5 mg/kg; for MRT inf: read-out: MRT0-∞. On the procedure:
SD rats were used as test animals to study the pharmacokinetic behavior of the compounds of the present invention in rats (plasma) after oral administration.
3 SD rats per group, male.
Formulation of drug for oral administration: 0.5% CMC-Na (1% Tween 80)
5 g of sodium carboxymethyl cellulose (CMC-Na, viscosity: 800-1200 Cps) was weighed and dissolved in 1000 mL of purified water, and 10 g of Tween 80 was added. These materials were uniformly mixed to form a clear solution.
The example compounds were weighed and dissolved in the solution and the mixture was shaken well and ultrasonicated for 15 min to obtain a colorless clear solution with a concentration of 0.5 mg/mL. Formulation of drug for intravenous administration: 5% DMSO + 10% Solutol HS15 + 85% PBS
After overnight fasting, 3 male SD rats per group were administered orally (PO) at a dose of 5 mg/kg with an administration volume of 10 mL/kg. […]
0.2 mL of blood was collected from the jugular vein of the experimental animals before administration and at 0.25 h, 0.5 h, 1.0 h, 2.0 h, 4.0 h, 6.0 h, 8.0 h, and 24.0 h after administration and placed in an EDTA-2K test tube, and the test tube was centrifuged at 8000 rpm for 6 min at 4°C to separate the plasma, which was stored at -80°C; and the animals were fed 4 h after administration.
3 Experimental results: The final determination results were obtained by using LCMS/MS method.

Data set [3] concerns the target T2, human CYP11B2 (Homo sapiens, UniProt P19099).
T2 construct: The main elements of an expression plasmid include ORF of human CYP11B1 or human CYP11B2; expressed in transfected cells
T2 sequence (P19099 25-503): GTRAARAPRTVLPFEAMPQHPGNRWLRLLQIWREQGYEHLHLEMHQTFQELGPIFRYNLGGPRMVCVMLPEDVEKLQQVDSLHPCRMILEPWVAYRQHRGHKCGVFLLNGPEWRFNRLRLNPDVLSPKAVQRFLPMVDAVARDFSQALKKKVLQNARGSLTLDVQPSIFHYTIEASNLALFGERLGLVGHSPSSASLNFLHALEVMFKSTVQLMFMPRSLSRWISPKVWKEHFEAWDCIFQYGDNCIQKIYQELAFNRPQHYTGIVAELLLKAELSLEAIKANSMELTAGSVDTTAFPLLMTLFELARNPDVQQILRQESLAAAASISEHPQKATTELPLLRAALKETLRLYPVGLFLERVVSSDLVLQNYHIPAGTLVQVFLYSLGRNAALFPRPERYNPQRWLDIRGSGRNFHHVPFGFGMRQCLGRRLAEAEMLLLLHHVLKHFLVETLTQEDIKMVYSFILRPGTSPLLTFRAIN
In words: G-402 cell enzyme experiment, CYP11B2 (aldosterone product, HTRF). The data set is classed as cell-based. Particulars: G-402 cells stably expressing human CYP11B2, 1 µM 11-deoxycorticosterone, 16 h.
Text: as §1, §2, §3, §4, §5

In the case of “6-(5-(2-ethoxyquinolin-6-yl)pyridin-3-yl)-2,6-diazaspiro[3.3]heptan-2-yl)(1-(methyl-d3)-1H-pyrazol-4-yl)methanone [Example 42]”, in data set [1], the hsF was determined as 393x.
With `CCC(=O)N[C@@H]1CCCc2c(-c3ccc4c(c3)COC(=O)N4C)cncc21` [Example 1-A], in data set [1], the hsF is 144x. For the same compound, in data set [2], the area under the curve AUC(0-inf) is 27700 ng·h/mL, the AUC(0-t) worked out at 27600 ng·h/mL, the concentration peaked (Cmax) at 6330 ng/mL and the Tmax was 1 h. In data set [2], the half-life is 2.6 h and the MRT inf stood at 3.7 h.
As to `CN1C(=O)OCc2cc(-c3cncc(N4CC5(CN(C(=O)c6cnn(C)c6)C5)C4)c3)ccc21` [Example 5, 1-Methyl-6-(5-(6-(1-methyl-1H-pyrazole-4-carbonyl)-2,6-diazaspiro[3.3]heptan-2-yl)pyridin-3-yl)-1,4-dihydro-2H-benzo[d][1,3]oxazin-2-one], the hsF in data set [1] is listed as above 1279x.
In the case of `CCC(=O)NC1CCCc2c(-c3ccc4nc(OC)ccc4c3)cncc21` (stereo not drawn) [Example 14-A], in data set [3], it took 24 nM to reach a half-maximal effect (EC50).
For the compound `CN1C(=O)OCc2cc(-c3cncc(C4=CCN(S(=O)(=O)C5CC5)CC4)c3)ccc21` [Example 41, 6-(1'-(cyclopropylsulfonyl)-1',2',3',6'-tetrahydro-[3,4'-bipyridine]-5-yl)-1-methyl-1,4-dihydro-2H-benzo[d][1,3]oxazin-2-one], the hsF in data set [1] is listed as 394x.
Same read-out and setting: then `CC(=O)N[C@@H]1CCCc2c(-c3cnc4c(c3)CCC(=O)N4C)cncc21` [Example 59, (R)-N-(4-(8-methyl-7-carbonyl-5,6,7,8-tetrahydro-1,8-diazanaphthalen-3-yl)-5,6,7,8-tetrahydroisoquinolin-8-yl)acetamide], with above 388x.
Take `CCC(=O)N[C@H]1c2cncc(-c3ccc4c(c3)sc(=O)n4C)c2C2CC21` (stereo partly drawn) [Example 66-P2, N-((6R)-4-(3-methyl-2-oxo-2,3-dihydrobenzo[d]thiazol-6-yl)-4b,5,5a,6-tetrahydrocyclopropyl[3,4]cyclopenta[1,2-c]pyridin-6-yl)propanamide]: the hsF in data set [1] is given as above 1471x.
Take `Cn1cc(C(=O)N2CC3(C2)CN(c2cncc(-c4ccc5c(c4)sc(=O)n5C)c2)C3)cn1` [Example 67, 3-methyl-6-(5-(6-(1-methyl-1H-pyrazole-4-carbonyl)-2,6-diazaspiro[3.3]heptan-2-yl)pyridin-3-yl)benzo[d]thiazol-2(3H)-one]: the hsF in data set [1] is given as above 485x. Moreover, in data set [2], the AUC(0-inf) was found to be 31400 ng·h/mL, the AUC(0-t) came out at 31400 ng·h/mL, the Cmax worked out at 4910 ng/mL and the Tmax was 4 h. Further, in data set [2], the half-life is 2 h and the MRT inf was found to be 3.9 h.
As for `Cn1cc(C(=O)N2CC3(C2)CN(c2cncc(-c4ccc5c(ccc(=O)n5C)c4)c2)C3)cn1` [Example 69, 1-methyl-6-(5-(6-(1-methyl-1H-pyrazole-4-carbonyl)-2,6-diazaspiro[3.3]heptan-2-yl)pyridin-3-yl)quinolin-2(1H)-one], in data set [1], the hsF stood at 585x.
For the compound `CN(c1cncc(-c2ccc3c(ccc(=O)n3C)c2)c1)C1CN(C(=O)c2cnn(C)c2)C1` [Example 74, 1-methyl-6-(5-(methyl(1-(1-methyl-1H-pyrazole-4-carbonyl)azetidin-3-yl)amino)pyridin-3-yl)quinolin-2(1)-one], the hsF in data set [1] was 371x.
Same read-out and setting: for `CN1C(=O)C2CC2c2cc(-c3cncc(N4CC5(CN(C(=O)c6cnn(C)c6)C5)C4)c3)ccc21` (stereo not drawn) [Example 75, 3-methyl-6-(5-(6-(1-methyl-1H-pyrazole-4-carbonyl)-2,6-diazaspiro[3.3]heptan-2-yl)pyridin-3-yl)-1,1a,3,7b-tetrahydro-2H-cyclopropa[c]quinolin-2-one] the value was above 16666x; for `Cn1cc(C(=O)N2CC(Oc3cncc(-c4ccc5c(ccc(=O)n5C)c4)c3)C2)cn1` [Example 98, 1-methyl-6-(5-((1-(1-methyl-1H-pyrazole-4-carbonyl)azetidin-3-yl)oxy)pyridin-3-yl)quinolin-2(1H)-one], 2014x.
Same read-out and setting: then `Cn1cc(C(=O)N2CC(Oc3cncc(-c4ccc5c(c4)sc(=O)n5C)n3)C2)cn1` [Example 99, 3-methyl-6-(6-((1-(1-methyl-1H-pyrazole-4-carbonyl)azetidin-3-yl)oxy)pyrazin-2-yl)benzo[d]thiazol-2(3H)-one], with above 3509x.
Take `Cn1c(=O)sc2cc(-c3cncc(N4CC5(CN(C(=O)C6(C#N)CC6)C5)C4)c3)ccc21` [Example 105, 1-(6-(5-(3-methyl-2-carbonyl-2,3-dihydrobenzo[d]thiazol-6-yl)pyridin-3-yl)-2,6-diazaspiro[3.3]heptane-2-carbonyl)cyclopropane-1-carbonitrile]: the hsF in data set [1] is recorded as 1372x. Besides, in data set [2] (in vivo), the area under the curve AUC(0-inf) was determined as 66500 ng·h/mL, the AUC(0-t) came to 60400 ng·h/mL, the Cmax amounted to 6040 ng/mL and the Tmax was found to be 4 h. In addition, in data set [2] (in vivo), the half-life was 7 h and the MRT inf stood at 9.6 h.
For the compound `Cn1c(=O)sc2cc(-c3cncc(N4CC5(CN(C(=O)C6(C#N)CC6)C5)C4)n3)ccc21` [Example 106, 1-(6-(6-(3-methyl-2-carbonyl-2,3-dihydrobenzo[d]thiazol-6-yl)pyrazin-2-yl)-2,6-diazaspiro[3.3]heptane-2-carbonyl)cyclopropane-1-carbonitrile], in data set [1], the hsF was 3103x.
